According to US20100041617A1, “Modulating mxa expression” (priority 2004, published 2010):

Key:
Format in all cases: cell-based, human
MxA promoter = assay: MxA promoter-luciferase reporter screen in stably transfected PC-3M cells; details: for Fold Increase in MxA Expression: MxA promoter-luciferase reporter in PC-3M cells, Control = 1.00; for expression of luciferase from the MxA promoter: PC-3M cells, DTP 1900 chemotype library screen, FIG. 8
Description: FIG. 7 outlines the high-throughput screen used for identifying small molecules that induce MxA expression. The MxA promoter was cloned upstream of luciferase, and transfected it into PC-3M human prostate carcinoma cells. A cell line that stably expressed this promoter-reporter construct was isolated. This cell line was used for testing whether test agents could induce MxA expression by screening for increased luciferase expression using a library of 1900 chemotypes. Interferon-α was a positive control for this assay. To develop a reporter system for drug screening, particularly for a high throughput assay procedure, the MxA promoter was cloned upstream of a nucleic acid segment that encoded luciferase (see FIG. 7). A nucleic acid encoding a eukaryotic selection marker (neomycin) was also inserted in the vector used for the reporter cassette. After transfecting this construct into human prostate carcinoma cells, a cell line that stably maintained the MxA reporter gene was cloned. Test agents, including a library of small molecules (the DTP 1900 chemotype library) were screened to ascertain whether any of the test agents increased luciferase expression. Of the 1900 compounds tested, 5 compounds activated the MxA promoter and increased luciferase expression. […] Methods similar to those described in Example 4 were used to identify compounds that activate MxA expression.

MxA protein [1] = assay: MxA protein induction by IFN-α, anti-MxA immunostaining, PC-3 cells; details: 24 hours, 1000 international units of IFN-α per ml, FIG. 2A
Method: (§1) PC-3 (Figure A1-4) and PC-3M (FIG. 2B) cells were grown for 24 hours on cover slips in the presence or absence of 1000 international units of IFN-α ml^1. The cells were then fixed, permeabilized, stained with monoclonal anti-MxA and Cy-3-conjugated goat anti-mouse Ig antibody and counterstained with DAPI. Immunofluorescence was visualized with a Zeiss Axiophot microscope with a 40× objective, and the images were captured on an Optronics CCD camera.
(§2) Induction of MxA expression by interferon. To determine whether IFN-α can induce MxA expression in PC-3 and PC-3M cells, cells were treated with recombinant IFN-α and subjected to immunohistochemical analysis using anti-MxA antibody and DAPI nuclear counterstaining to locate individual cells (FIG. 2). Consistent with the western blot result, this assay detected MxA protein only in untreated PC-3 and not in untreated PC-3M cells (compare upper left panels in FIGS. 2A and 2B). […] Western blotting (not shown) confirmed the IFN did induce increased MxA protein expression in both cell lines.

PC-3M cells = assay: Cell migration (motility) assay through pores of a PET membrane, PC-3M cells; details: for motility of PC-3M cells: FIG. 10
Method: Effect of MxA on motility of PC-3M. […] It has been reported that type I IFN could reduce cell motility (Brouty-Boyé and Zetter, 1980), one component of metastasis. To test whether PC-3 and PC-3M cells differed in motility, these two cell lines were subjected to a cell migration assay that measured the ability of cells to migrate through pores in a polyethylene terephthalate (PET) membrane. The five compounds that induced luciferase expression from the MxA were then tested to ascertain whether these compounds could also induce MxA protein expression and inhibit motility of PC-3-M prostate cancer cells. Each of the compounds could do so (FIGS. 9 and 10).

PC-3 cells = assay: Cell migration (motility) assay through pores of a PET membrane, PC-3 cells; details: 1000 IU ml^−1 IFN-α, FIG. 3A
Description: FIG. 3A graphically illustrates the motility of PC-3M and PC-3 cells, before and after exposure to 1000 IU ml^−1 IFN-α. Mean values of percent of control PC-3M mobility are shown as bar graphs with mean percentages indicated above each bar. Each value represents the mean of two independent triplicate determinations. Error bars show range of determinations.
Effect of MxA on motility of PC-3M. […] It has been reported that type I IFN could reduce cell motility (Brouty-Boyé and Zetter, 1980), one component of metastasis. To test whether PC-3 and PC-3M cells differed in motility, these two cell lines were subjected to a cell migration assay that measured the ability of cells to migrate through pores in a polyethylene terephthalate (PET) membrane.

MxA protein [2] = assay: MxA protein induction by IFN-α, anti-MxA immunostaining, PC-3M cells; details: 24 hours, 1000 international units of IFN-α per ml, FIG. 2B
Method: as §1, §2

MxA protein [3] = assay: Induction of MxA protein expression in PC-3-M prostate cancer cells by compounds; details: FIG. 9
Method: The five compounds that induced luciferase expression from the MxA were then tested to ascertain whether these compounds could also induce MxA protein expression and inhibit motility of PC-3-M prostate cancer cells. Each of the compounds could do so (FIGS. 9 and 10).

| Molecule | Fold Increase in MxA Expression (MxA promoter) [fold] | also measured |
| --- | --- | --- |
| COC1CC(C)C(OC)c2cc(O)cc(c2O)NC(=O)/C(C)=C\C=C/C(C)C(OC(N)=O)/C(C)=C\C(C)C1OC (stereo not drawn) [Compound 10] | 0.40 | – |
| CCCS(=O)(=O)Nc1ccc(Nc2c3ccccc3nc3ccccc23)c(OC)c1.CS(=O)(=O)O [Compound 6] | 3.65 | – |
| COC1C(O)C(C)OC(OC2C(Oc3cccc4c(O)c5c(=O)oc6ccc(C)c7c(=O)oc(c34)c5c67)OC(C)C3O[C@H](c4ccccc4)OC32)C1O (stereo partly drawn) [Compound 16] | 2.25 | – |
| CCN(CC)CCCNc1nccc2c(C)c3[nH]c4ccncc4c(=O)c3cc12 [Compound 15] | 2.15 | – |
| O=c1c2cc(O)ccc2n2nnc3ccc(NCCNCCO)c1c32 [Compound 19] | 2.08 | – |
| IFN-α | – | level of MxA protein after exposure to IFN-α (MxA protein [1]): increased substantially; PC-3M cell motility (PC-3M cells; 1000 IU ml^−1 IFN-α, FIG. 3A): reduced PC-3M cell motility to a level comparable to that of PC-3 cells; PC-3 cell motility (PC-3 cells): reduced its motility to levels below that seen when no IFN was present; level of MxA protein after exposure to IFN-α (MxA protein [2]): became detectable for the first time |
| CN1CCN(CCNc2ccc(CO)c3sc4ccccc4c(=O)c23)CC1 [Compound 4] | 1.32 | – |
| CCN(CC)CCNc1ccc2nnn3c4ccc(OC(C)=O)cc4c(=O)c1c23 [Compound 32] | 2.64 | – |
| CC(=O)C1=C(N=[N+]=[N-])c2cccc3cccc(c23)C1=O [Compound 26] | 0.95 | – |
| COc1ccc2cc(COCCC(=O)O)ccc2c1 [NSC 46669, 3-(6-Methoxy-naphthalen-2-ylmethoxy)-propionic acid] | – | motility of PC-3M cells (PC-3M cells): decrease the motility; induction of MxA protein expression (MxA protein [3]): induce expression of MxA protein; expression of luciferase from the MxA promoter (MxA promoter): induce expression of luciferase |
| Cc1cc(Cc2cc(C)c(N)cc2N)c(N)cc1N [NSC 7215, methylene-bis(2,4-amino-5-methyl-benzene)] | – | motility of PC-3M cells (PC-3M cells): decrease the motility; induction of MxA protein expression (MxA protein [3]): induce expression of MxA protein; expression of luciferase from the MxA promoter (MxA promoter): induce expression of luciferase |
| Cc1cccc(NC(=O)C(=O)C(C2OC(=O)c3ccccc32)[N+](=O)[O-])c1C (stereo not drawn) [Compound 18] | 0.79 | – |
| O=C(O)c1ccc(Oc2nc3ccccc3s2)cc1 [NSC 122335, 4-(benzothiazol-2-yloxy)-benzoic acid] | – | motility of PC-3M cells (PC-3M cells): decrease the motility; induction of MxA protein expression (MxA protein [3]): induce expression of MxA protein; expression of luciferase from the MxA promoter (MxA promoter): induce expression of luciferase |
| O=[N+]([O-])c1ccc(Nc2nc3ccccc3s2)cc1 [NSC 34444, benzothiazol-2-yl-(4-nitro-phenyl)-amine] | – | expression of luciferase from the MxA promoter (MxA promoter): induce expression of luciferase |
| COc1cc(C2C(Cl)C(=O)N2NC(=O)c2ccc(N)cc2)cc(Br)c1O (stereo not drawn) [Compound 21] | 1.64 | – |
| CN(CCCn1ccnc1[N+](=O)[O-])CCCn1ccnc1[N+](=O)[O-] [Compound 23] | 1.28 | – |
| Cc1ccc2c(c1)C=CC1(O2)N(c2ccccc2)C(=S)OC1(C)C (stereo not drawn) [Compound 30] | 0.85 | – |
| O=S(=O)(c1cccc(N=C=S)c1)c1cccc(N=C=S)c1 [Compound 3] | 1.11 | – |
| COc1cc(C2C(Cl)C(=O)N2NC(=O)c2ccc(N)cc2)ccc1O (stereo not drawn) [Compound 20] | 1.37 | – |

| Molecule | Fold Increase in MxA Expression (MxA promoter) [fold] | also measured |
| --- | --- | --- |
| CO[C@H]1[C@H](O)[C@@H](O)[C@H](n2c3c(Cl)cccc3c3c4c(c5c6cccc(Cl)c6[nH]c5c32)C(=O)NC4=O)O[C@@H]1CO [Compound 12] | 1.46 | – |
| CS(=O)(=O)CS(=O)(=O)OCCCl [Compound 11] | 1.11 | – |
| CC(C)CCc1c(Cl)nc(Cl)nc1Cl [Compound 2] | 1.03 | – |
| O=[N+]([O-])c1ccc(N2N=C(c3ccc4ccccc4c3O)CC2c2ccc(Cl)cc2Cl)c([N+](=O)[O-])c1 (stereo not drawn) [Compound 27] | 2.25 | – |
| CC(C)(Oc1ccc(Cl)cc1)C(=O)N(C(=O)N1CCCCC1)c1ccccc1 [Compound 29] | 1.03 | – |
| CCOC(=O)c1cccc(NC(=O)CBr)c1 [Compound 34] | 0.27 | – |
| N/N=C(/C(=O)Nc1cccc(Cl)c1)C(C(=O)c1ccc(O)cc1O)C1OC(=O)c2ccccc21 (stereo not drawn) [Compound 17] | 1.05 | – |
| CCOC(=O)[C@@H]1ON2O[C@H](OC3CCCCC3c3ccccc3)C[C@H]3OC(=O)[C@@H]1C32 (stereo partly drawn) [Compound 33] | 1.03 | – |
| COc1cc2c(cc1OC)C1C(=O)c3cc(OS(C)(=O)=O)c(OC)cc3C1N(C)C2=O (stereo not drawn) [Compound 13] | 2.15 | – |
| C=CC[C@H]1[C@H](O[Si](C)(C)C(C)(C)C)C=CC(=O)[C@@H]1CC(=O)OCC [Compound 35] | 0.68 | – |
| COc1cc2c3c(n(C)c(=O)c2cc1OC)-c1cc2c(cc1C3=O)OCO2 [Compound 8] | 1.71 | – |
| Cc1cc(=O)oc2cc(OC(=O)Nc3ccc(Cl)c(Cl)c3)ccc12 [Compound 7] | 1.18 | – |
| O=C1CC(=O)NC(=NN2C(=O)CSC2c2ccc(Cl)cc2)N1 (stereo not drawn) [Compound 28] | 1.40 | – |
| Cc1c(C(=O)/C=C/c2c(Cl)cccc2Cl)c(=O)n(-c2ccccc2)n1C [Compound 22] | 0.32 | – |
| O=C1C(=C(C(=O)c2ccccc2)C(=O)c2ccccc2)OC(c2ccccc2)=C1C(=O)c1ccccc1 [Compound 36] | 1.62 | – |
| COC1C(O)C(C)OC(CCOC2C(Oc3cccc4c(O)c5c(=O)oc6ccc(C)c7c(=O)oc(c34)c5c67)OC(C)C(O)C2O)C1O (stereo not drawn) [NSC 5159, 10-{3-[2-(3,5-Dihydroxy-4-methoxy-6-methyl-tetrahydro-pyran-2-yl)-ethoxy]-4,5-dihydroxy-6-methyl-tetrahydro-pyran-2-yloxy}-6-hydroxy-1 methyl-benzo[h]chromeno[5,4,3-cde]chromene-5,12-dione] | – | motility of PC-3M cells (PC-3M cells): decrease the motility; induction of MxA protein expression (MxA protein [3]): induce expression of MxA protein; expression of luciferase from the MxA promoter (MxA promoter): induce expression of luciferase |
| C=[N+](CNC(=O)CNC(=O)C(Cc1ccc([N+](=O)[O-])cc1)NC(=O)OC(C)(C)C)C(=O)CNC(=O)C(Cc1ccc([N+](=O)[O-])cc1)NC(=O)OC(C)(C)C (stereo not drawn) [Compound 24] | 0.84 | – |
| CC1(C)OC(=S)N(c2ccccc2)C12C=Cc1cc3ccccc3cc1O2 (stereo not drawn) [Compound 31] | 0.91 | – |
